Experimental data reported in patent publication US7683182B2, “Crystal forms of 2-(3-fluoro-4-hydroxyphenyl)-7-vinyl-1,3-benzoxazol-5-ol” (Wyeth LLC, priority 2005, dated 2010).

Key:
Assay type in all cases: physicochemical
[1] = Stability, separate study of micronized and non-micronized anhydrate (XRPD)
[2] = Stability studies, long term (XRPD, TGA, HPLC); conditions: non-micronized, three months
Method: Non-micronized samples of monohydrate and anhydrate were stored at 40° C./75% RH for three months. The monohydrate was also stored at 40° C. without humidity control. During the three months, the samples were checked after two weeks, one month, two months, and three months.

[3] = Dynamic vapor sorption (DVS), hygroscopicity; conditions: for DVS gain: 0-90% RH; for Hygroscopicity (from DVS weight gain): DVS data of Table 2
From the text: Dynamic Vapor Sorption (Allentown, Pa.) was used to measure the hygroscopicity of the anhydrate and monohydrate of the invention (see FIGS. 6 and 7). The step conditions were three hours each at 0%, 30%, 52.5%, 75% and 90% RH, two full cycles.

[4] = Stability studies, short term (XRPD)
[5] = Stability studies, medium term (XRPD and TGA)
Method: Samples of monohydrate were stored at room temperature, 56° C., and 70° C. for one week. At room temperature, humidity was maintained at 0% RH. Humidity was not controlled for the higher temperatures.
The samples were analyzed by XRPD and TGA.

[6] = Water solubility of the crystal forms; conditions: Table 2 data
[7] = 40° C. without humidity control

Transformation to the monohydrate (XRPD) ([1]; micronized, 25° C./60% RH, three months)	Transformation to the monohydrate (XRPD) ([1]; micronized, 40° C./75% RH, one month)	Transformation to the monohydrate (XRPD) ([1]; non-micronized, 40° C./75% RH)	Chemical stability (HPLC) ([2]; 40° C./75% RH)	Transformation of crystal form (XRPD and TGA) ([2]; 40° C./75% RH)	DVS gain [3]	Hygroscopicity (from DVS weight gain) [3]	Stability of crystal form (XRPD) ([4]; 70° C. for one hour)	Stability of crystal form (XRPD) ([4]; 90° C. after one half hour)	Stability of crystal form (XRPD) ([4]; 90° C. after one hour)	Chemical stability (HPLC) [2, 7]	Transformation of crystal form (XRPD and TGA) [2, 7]	Dehydration on storage (XRPD and TGA) ([5]; 56° C., humidity not controlled, one week)	Dehydration on storage (XRPD and TGA) ([5]; 70° C., humidity not controlled, after 1 day)	Dehydration on storage (XRPD and TGA) ([5]; 70° C., humidity not controlled, after 4 days)	Dehydration on storage (XRPD and TGA) ([5]; 70° C., humidity not controlled, after 7 days)	Dehydration on storage (XRPD and TGA) ([5]; room temperature, 0% RH, one week)	SMILES	Water solubility compared between the two forms [6]
did not transform to the monohydrate	partially transform to the monohydrate	did not show any obvious transformation	chemically stable	did not transform	0.2% gain (0-90% RH)	largely non-hygroscopic	–	–	–	–	–	–	–	–	–	–	C=Cc1cc(O)cc2nc(-c3ccc(O)c(F)c3)oc12 [Anhydrate, 2-(3-fluoro-4-hydroxyphenyl)-7-vinyl-1,3-benzoxazol-5-ol]	–
–	–	–	chemically stable	did not transform	0.1% gain (0-90% RH)	largely non-hygroscopic	stable	partially dehydrated	completely dehydrated	chemically stable	did not transform	no obvious dehydration	no obvious hydration	partially dehydrated	mostly dehydrated	no obvious dehydration	C=Cc1cc(O)cc2nc(-c3ccc(O)c(F)c3)oc12 [Monohydrate, 2-(3-fluoro-4-hydroxyphenyl)-7-vinyl-1,3-benzoxazol-5-ol]	significantly lower solubility than the anhydrate
